As a reminder, the IC50 is the concentration needed to halve the response being measured. A lower IC50 goes with greater potency. What is called Vd is the apparent volume that relates the amount in the body to the concentration in plasma or blood. Lower therefore signals little distribution into tissue.

Like-named read-outs stand apart in the source and are kept apart here.

Series [1] relates to CHL/IU (cell line derived from a Chinese hamster lung). Description: Phospholipidosis detecting system using fluorescent labeling phospholipid analog (NBD-PE). It is filed as cell-based. The following applies: for Rate of increase of phospholipid accumulation (%) (compound dose: 200 μM): CHL/IU cells, compound dose 200 μM, about 48 hours, relative to NBD-PE control. How it is done: Investigation with Phospholipidosis Detecting System using Fluorescent Labeling Phospholipidosis Analog under Severity Condition (1) Phospholipid Accumulation Measurement 100 μL/well as required (1 dose 2 wells) of cell suspension of CHL/IU (cell line derived from a Chinese hamster lung) (7×10^4 cells/mL) prepared by MEM (minimum essential medium) culture medium was added to a 96-well plate (96-well clear-bottom plate), and cultured for about 24 hours. After culture, the supernatant of the 96-well plate was removed, and the 100 μL/well compounds of each concentration dissolved and suspended in an MEM including 25 μmol/L nitrobenzoxadiazole dipalmitoyl phosphatidylethanolamine (NBD-PE) (hereinafter abbreviated as a NPD-PE medium) were added and treated for about 48 hours. The treatment concentrations of each compound were set to be 5, 50, 100 and 200 μM. The positive control substance was set to be amiodarone hydrochloride, and the treatment concentrations were set to be 1.25, 2.5, 5, 10 and 20 μM. In addition, 5-well untreated controls (only MEM) and 5-well NBD-PE controls (made by means of adding a 1/100 amount of DMSO to the NBD-PE culture medium) were set per compound, and cultured in the same manner. After finishing the culture, the cultures were washed twice with phosphate buffered saline (hereinafter abbreviated as PBS) (−) 100 μL/well, and the MEM (100 μL) was added to all of the treatment wells including two empty wells for WST-1 background controls and cultured for about a half hour. The fluorescence intensities of each well were measured by using a microplate reader (manufactured by Molecular Devices Inc., SPECTRA max M2; the excitation wavelength 485 nm/fluorescence wavelength 535 nm). (2) Analysis Using the average values of each dose×2 wells, a phospholipid increase rate (%) to the NBD-PE control was calculated by using the following calculating formula: Rate of increase of phospholipid accumulation (%)=100×{(test compound fluorescence intensity−non-treated control fluorescence intensity)/(NBD-PE control fluorescence intensity−non-treated control fluorescence intensity)} [Equation 2] (3) Cytotoxicity Assay 96-well plate measured in the phospholipid accumulation measurement was measured by means of Plate Reader (manufactured by Molecular Devices Inc., SPECTRA max M2) with the main wavelength of 450 nm and the correct wavelength of 690 nm to calculate a Pre value. An amount of 5 μL/well of Premix WS T-1 was added to each of the 96-hole plates by which Pre measurement was conducted. After culture for 2 to 4 hours, the 96-well plate was measured as well as the Pre measurement to calculate an Aft value. Then, the background control value was subtracted from the each measured value. A value which was calculated by subtracting the Pre value from the Aft value was used, then the cell growth rate (%) was calculated by using the following calculating formula: Cell growth rate (%)=100×[(test substance OD)/(NBD-PE control OD)] [Equation 3] (4) Determination A test dose that indicated value of 25% or more of the maximum phospholipid accumulation increase rate of amiodarone which was the positive control was determined as positive. In addition, the dose whose cell growth rate was equal to or less than 50% in the cytotoxicity assay was not used for determination of existence or nonexistence of a phospholipidosis inductive effect.

The conditions of series [2]: rat, in vivo, iv, 1 mg/kg.
Description: (§1) Measurement of Maximum Plasma Level (Cmax) and Stationary State Distribution Volume (Vss)
(§2) A compound to be evaluated is weighed, dissolved in WellSolve (trade name; manufactured by Celeste Corporation) which is heated to 60° C. and adjusted to 20 mg/mL; thereafter, the test compound is diluted by 10 times with distilled water for injection, and further diluted by 2 times with saline solution, by which intravenously administered solution is eventually made. A compound to be evaluated is dissolved in WellSolve which is heated to 60° C. and adjusted to 50 mg/mL; thereafter, the compound to be evaluated is diluted with distilled water for injection and adjusted to 1 mg/mL. Five compounds (one set) were mixed in the same amount and adjusted to final concentration of 0.2 mg/mL per one compound, by which orally administered solution is eventually made. […] The administration is conducted under fasting conditions; water is freely ingested. In the case of intravenous administration, a 0.35 mL of blood sample is taken from cervical vein by using Heparinized Syringe at 5 minutes, 15 minutes, 30 minutes, 1 hour, 2 hours, 4 hours, 6 hours, 8 hours, and 24 hours after administration. […] The obtained blood is stored in ice, and after centrifugation at 12,000 rpm for 3 minutes, blood plasma is fractionated. In the case of intravenous administration, the blood plasma sample preserved at a temperature of −80° C. is dissolved; inner standard solution (100 μL) and acetonitrile (2 mL) are added to the blood plasma sample (100 μL) and stirred, and the sample is centrifuged at 2,500 rpm for 10 minutes.
(§3) After the supernatant centrifuged is evaporated to dryness by means of a centrifugal concentrator, 67% dimethyl sulfoxide solution (150 μL) is added to the residue and dissolves them again and 20 μL of the solution is analyzed by means of LC/MS/MS.
(§4) Measurement device: Waters 2795 (manufactured by Waters Corporation) Analytical column: Unison UK-C18, 3.0 μm particle size, 2.0 mm×30 mm (manufactured by Imtakt Corporation) Analytical column temperature: Room temperature Flow rate: 200 μL/min Moving bed: 5 mM IPC-PFAA-7 solution/acetonitrile (9/1→1/9)
(§5) Measurement device: Quatro micro API (manufactured by Micromass Communications Inc.) Scan type: MPM
(§6) The monitor ion which was suitable for each sample was selected.
(§7) A portion of the compound to be intravenously administered was subjected to the following treatment. The blood plasma sample preserved at a temperature of −80° C. is dissolved; inner standard solution (50 μL) and acetonitrile (1 mL) are added to the blood plasma sample (50 μL) and stirred, and the sample is centrifuged at 3,000 rpm for 10 minutes. After the supernatant is evaporated to dryness by means of a centrifugal concentrator, the residue was redissolved in water/acetonitrile (1/1) and the solution is analyzed by means of LC/MS/MS under the following conditions.
(§8) Measurement device: 1200 series system (manufactured by Agilent Technologies) Analytical column: Asahipak OOD-50 2D, 2×150 mm (manufactured by Showa Denko K.K.) Analytical column temperature: Room temperature Moving bed: 5 mM IPC—PFAA-7 solution/acetonitrile (gradient) Flow rate: 200 μL/min
Series [3] has as its target T1, CXCR4 (human T cell strain CEM cells) (Homo sapiens, UniProt P61073).
T1 construct: a human T cell strain in which CXCR4 is known to be expressed; endogenous in cells; host or cells: CEM cells (human T cell strain)
Description: Inhibition of binding human SDF-1 to CEM cells (125I-SDF-1). The following applies: 4° C., 60 minutes. How it is done:
Specifically, as a system of screening a compound that inhibits the binding between SDF-1 and CXCR4, for example a system of measuring the binding between iodine-labeled SDF-1 and a human T cell strain in which CXCR4 is known to be expressed is operable.
Study for Inhibition of Binding Human SDF-1 to CEM Cells
To human T cell strain CEM cells in a binding buffer (containing HEPES and BSA), the test compound and ^125I-SDF-1 (PerkinElmer) were added and the mixture was incubated at 4° C. for 60 minutes. The reacted CEM cells were rapidly filtrated with a GF/B membrane filter plate (Packard) to adsorb. The plate was washed with phosphate buffered saline (hereinafter abbreviated to PBS) three times and then dried. Microscint+20 (Packard) was added thereto. An amount of the radioactivity bound to the CEM cells was measured using Top Count (Packard) and inhibition (%) of the test compound was calculated according to the following equation:
Inhibition={(Et−Ea)/(Et−Ec)}×100 [Equation 1]
Et: Amount of radioactivity when the test compound is not added,
Ec: Amount of radioactivity when non-radioactive SDF-1 (Pepro Tech) is added in an amount of 1,000 times as much as ^125I-SDF-1 as a test compound, and
Ea: Amount of radioactivity when the test compound is added.

A short description of series [4]: Artificial lipid membrane binding using Biacore S51 system. The following applies: for Value of binding response (RU): DOPA liposome, 50 μM compound, PBS/5% DMSO pH 7.4, 37° C., corrected value; for Determination (artificial lipid membrane binding): positive = corrected binding response 150 or more. On the technique in general: Surface plasmon resonance follows binding to a sensor surface in real time, without labels.
Description: Artificial Lipid Membrane Binding Account by using Biacore® S51 System
10 mM of 1,2-dioleoyl-sn-glycero-3-phosphate monosodium salt (hereinafter abbreviated as DOPA) chloroform solution was evaporated to dryness by means of an aspirator, and 0.6 mL of PBS/5% dimethyl sulfoxide (hereinafter abbreviated as DMSO) was added. The chloroform solution was fully suspended by means of a vortex mixer, and the freezing and thawing were repeated for 5 times. Liposome was created by means of a liposome preparation instrument (manufactured by Avestin Inc.) and two syringes, and was diluted to 0.5 mM with PBS/5% DMSO just prior to immobilization.
(2) Measurement Compound Preparation
38 μl of 1×PBS is added to 2 μl of a DMSO solution (10 mM), and further the 360 μl of 1×PBS/5% DMSO was added and the 50 μM of final concentration in PBS/5% DMSO was prepared and measured.
All of the following analysis used Biacore® S51 system and the measurement conditions were set by Biacore S51 Control Soft.
The measurement temperature was set to be 37° C., and PBS/5% DMSO (pH 7.4 or 6.0) was used as a buffer. Series S Sensor Chip L1 was used for a sensor chip. DOPA was immobilized in one of the measuring spots on the sensor surface and the central spot was used as a reference.
Immobilization of liposome was conducted at a flow rate of 10 μL/min for about 3 minutes and then the compound was added at a flow rate of 30 μL/min and the interaction was measured. The measurement conditions are as follows:
Assay buffer: PBS/5% DMSO (pH 7.4) Measurement temperature: 37° C. Sensor chip: Series S Sensor Chip L1 Flow rate: 10 μL/min at the time of the liposome immobilization; 30 μL/min at the time of the measurement of interaction with the compound Regeneration: 20 mM CHAPS (3-[(3-cholamidopropyl)dimethylammonio]-1-propanesulfonate), isopropylalcohol/aqueous 50 mM sodium hydroxide solution=40/60 (volume ratio) mixture solution (60 seconds)
The data processing was conducted by means of method of Abdiche et al., (Analytical biochemistry, 328, 233-243 (2004)) by using Biacore S51 Evaluation Soft.
Regarding the value of binding response (RU) in which the value of reference was subtracted, it was divided by a sample molecular weight after minute error of the DMSO concentration included in the sample solution was corrected. In addition, the value obtained here was divided by an amount of capture at the time of the cycle because the value obtained here was proportional to the amount of capture of the liposome and the value was multiplied by a million to be considered as a corrected value (Corrected value=1,000,000×RU (test compound)/molecular quantity (test compound) RU (liposome)).
The compound wherein a value of the binding response after the correction was 150 or more was determined as positive.

Series [5] is described as follows: Measurement of maximum plasma level (Cmax) and stationary state distribution volume (Vss). The conditions noted are these: male, Crl:CD(SD), rat, iv, 1 mg/kg.
Description: as §1, §2, §3, §4, §5, §6, §7, §8
[6] abbreviates: positive = 25% or more of the maximum increase rate of amiodarone.

T1 sequence (P61073 whole entry): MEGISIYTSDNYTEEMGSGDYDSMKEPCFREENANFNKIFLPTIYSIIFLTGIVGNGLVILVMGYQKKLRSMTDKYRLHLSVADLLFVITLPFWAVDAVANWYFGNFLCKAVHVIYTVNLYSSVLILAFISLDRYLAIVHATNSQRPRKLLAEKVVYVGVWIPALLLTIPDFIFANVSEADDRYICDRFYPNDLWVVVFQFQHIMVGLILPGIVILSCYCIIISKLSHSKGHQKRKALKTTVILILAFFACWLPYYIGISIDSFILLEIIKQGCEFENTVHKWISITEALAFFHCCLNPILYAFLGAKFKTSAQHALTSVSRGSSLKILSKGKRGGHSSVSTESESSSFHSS

In the case of `CC(C)CN1CCC2(CC1)CCN(CCCn1ccnc1CN(CCCC(=O)O)Cc1ncc[nH]1)C2` [Example 22(3), 4-[(1H-imidazol-2-ylmethyl)({1-[3-(8-isobutyl-2,8-diazaspiro[4.5]deca-2-yl)propyl]-1H-imidazol-2-yl}methyl)amino]butanoic acid], in series [1], the “Determination (phospholipidosis, NBD-PE system)” value is given as “Negative”. Moreover, the “Distribution volume (L/kg) (stationary state distribution volume, Vss)” value in series [2] turned out to be 0.90 L/kg.

For `CCC(CC)N1CCC2(CCN(CCCn3ccnc3CN(CCCC(=O)O)Cc3ncc[nH]3)C2)CC1` [Example 25(1), 4-{[(1-{3-[8-(1-ethylpropyl)-2,8-diazaspiro[4.5]deca-2-yl]propyl}-1H-imidazol-2-yl)methyl](1H-imidazol-2-ylmethyl)amino}butanoic acid], the IC50 in series [3] is 6.6 nM. In addition, in series [1], the “Rate of increase of phospholipid accumulation (%) (compound dose: 200 μM)” value is 16%. In addition, the “Determination (phospholipidosis, NBD-PE system)” value in series [1] (setting [6]) is “Negative”. In addition, in series [4], the “Value of binding response (RU)” value turned out to be 28.3 RU and the “Determination (artificial lipid membrane binding)” value is on record as “Negative”. In series [5], this molecule returned a Vd of 0.36 L/kg.

In the case of `CCC(CC)N1CCC2(CCN(CCCn3ccnc3CN(Cc3ccc(OCC(=O)O)cc3)Cc3ncc[nH]3)C2)CC1` [Example 43, [4-({[(1-{3-[8-(1-ethylpropyl)-2,8-diazaspiro[4.5]deca-2-yl]propyl}-1H-imidazol-2-yl)methyl](1H-imidazol-2-ylmethyl)amino}methyl)phenoxy]acetic acid], the IC50 in series [3] is 4 nM. In addition, the “Rate of increase of phospholipid accumulation (%) (compound dose: 200 μM)” value in series [1] turned out to be 16%. Further, in series [1] (setting [6]), the “Determination (phospholipidosis, NBD-PE system)” value is given as “Negative”. Further, in series [4], the “Value of binding response (RU)” value is listed as 36.1 RU and the “Determination (artificial lipid membrane binding)” value is “Negative”. Also, the Vd in series [5] is 0.65 L/kg.

Values taken from US20090325992A1, “COMPOUND HAVING CYCLIC GROUP BOUND THERETO THROUGH SPIRO BINDING AND USE THEREOF” (ONO PHARMACEUTICAL CO., LTD., priority 2006, published 2009).
